Columns and labels:
Her2 = assay: Degradation of Her2 in BT-474 cells after treatment with compound (Western blot, Method 1); format: cell-based, human; details: for IC50: treated overnight in DMEM
Description: Human high-Her2 breast carcinoma BT474 (HTB-20), SK-BR-3 (HTB-30) and MCF-7 breast carcinoma (HTB-22) from American Type Culture Collection, VA, USA were grown in Dulbecco's modified Eagle's medium with 4 mM L-glutamine and antibiotics (100 IU/ml penicillin and 100 ug/ml streptomycine; GibcoBRL). To obtain exponential cell growth, cells were trypsinized, counted and seeded at a cell density of 0.5×10^6 cells/ml regularly, every 3 days. All experiments were performed on day 1 after cell passage.
BT-474 cells were treated with 0.5 μM, 2 μM, or 5 μM of 17AAG (a positive control) or 0.5 μM, 2 μM, or 5 μM of a compound of the invention overnight in DMEM medium. After treatment, each cytoplasmic sample was prepared from 1×10^6 cells by incubation of cell lysis buffer (#9803, cell Signaling Technology) on ice for 10 minutes. The resulting supernatant used as the cytosol fractions are dissolved with sample buffer for SDS-PAGE and run on a SDS-PAGE gel, blotted onto a nitrocellulose membrane by using semi-dry transfer. Non-specific binding to nitrocellulose was blocked with 5% skim milk in TBS with 0.5% Tween at room temperature for 1 hour, then probed with anti-Her2/ErB2 mAb (rabbit IgG, #2242, Cell Signaling) and anti-Tubulin (T9026, Sigma) as housekeeping control protein. HRP-conjugated goat anti-rabbit IgG (H+L) and HRP-conjugated horse anti-mouse IgG (H+L) were used as secondary Ab (#7074, #7076, Cell Signaling) and LumiGLO reagent, 20× Peroxide (#7003, Cell Signaling) was used for visualization.

[1] = tested on: canine osteosarcoma tumor cell line D17; assay: SCID mouse xenograft model, canine osteosarcoma tumor cell line D17; format: in vivo; details: D17 xenograft in SCID mice
Description: (§1) The human multiple myeloma cell line, RPMI 8226 (ATCC #CCL-155), and the canine osteosarcoma cell line, D-17 (ATCC #CCL-183), were obtained from the American Type Culture Collection (ATCC; Manassas, Va., USA). The cells were cultured in growth media prepared with RPMI Media 1640 (4.5 g/L glucose), 10% fetal bovine serum (FBS), 10 mM HEPES, 1% 100× Penicillin-Streptomycin, 1% 100× sodium pyruvate and 1% 100×MEM non-essential amino acids. FBS was obtained from ATCC and all other reagents were obtained from Invitrogen Corp. (Carlsbad, Calif., USA). Cells that had been cryopreserved in liquid nitrogen were rapidly thawed at 37° C. and transferred to a tissue culture flask containing growth media and then incubated at 37° C. in a 5% CO2 incubator. To expand the RPMI 8226 cell line, growth media was changed every 2-3 days and cultures were passaged 1:3 to 1:5 every 3-5 days. When the a 175 cm^2 flask reached approximately 20-40×10(6) total cells, the above passaging process was repeated until sufficient cells had been obtained for implantation into mice. […] The supernatant was aspirated and the cell pellet was resuspended in 10 mL of growth media and the cell number determined using a hemocytometer. […]
(§2) Tumors were then permitted to develop in vivo until the majority reached 75-250 mm^3 in tumor volume, which required ˜4 weeks following implantation for the RPMI 8226 model and ˜9 weeks for the D-17 model. […] Tumor volumes (V) were calculated by caliper measurement of the width (W), length (L) and thickness (T) of tumors using the following formula: V=0.5236×(L×W×T). Animals were randomized into treatment groups so that the average tumor volumes of each group were similar at the start of dosing. % T/C values, as a measure of efficacy, were determined as follows: • (i) If ΔT>0: % T/C=(ΔT/ΔC)×100 • (ii) If ΔT<0: % T/C=(ΔT/T0)×100 • (iii) ΔT=Change in average tumor volume between start of dosing and the end of study. • (iv) ΔC=Change in average tumor volume between start of dosing and the end of study. • (v) T0=Average tumor volume at start of dosing. […]

[2] = tested on: human multiple myeloma tumor cell line RPMI 8226; assay: SCID mouse xenograft model, human multiple myeloma tumor cell line RPMI 8226; format: in vivo; details: RPMI 8226 xenograft in SCID mice
Description: as §1, §2

CC(C)c1cc(-c2nnc(O)n2-c2ccc3c(c2)CCC3)c(O)cc1OP(=O)(O)O [Compound 1, 4-(4-(2,3-dihydro-1H-inden-5-yl)-5-hydroxy-4H-1,2,4-triazol-3-yl)-5-hydroxy-2-isopropylphenyl dihydrogen phosphate]
IC50 (Her2): 228 nM

CC(C)c1cc(-c2nnc(O)n2-c2ccc(N3CCOCC3)nc2)c(O)cc1OP(=O)(O)O [Compound 2, 5-hydroxy-4-(5-hydroxy-4-(6-morpholinopyridin-3-yl)-4H-1,2,4-triazol-3-yl)-2-isopropylphenyl dihydrogen phosphate]
IC50 (Her2): 90 nM

CC(C)c1cc(-c2nnc(O)n2-c2ccc3c(ccn3C)c2)c(O)cc1OP(=O)(O)O [Compound 3, 5-hydroxy-4-(5-hydroxy-4-(1-methyl-1H-indol-5-yl)-4H-1,2,4-triazol-3-yl)-2-isopropylphenyl dihydrogen phosphate]
IC50 (Her2): 88 nM | overt toxicity ([1]; 61 mg/kg): Overt toxicity was not observed | % T/C value ([1]; 61 mg/kg body weight i.v., day 83): 6% | average bodyweight change relative to the start of the study ([1]; 61 mg/kg, day 83): −0.2% | overt toxicity ([2]; 100 mg/kg): Overt toxicity was not observed | % T/C value ([2]; 100 mg/kg body weight i.v., day 46): 15% | average bodyweight change relative to the start of the study ([2]; 100 mg/kg, day 46): 2.1%

CC(C)c1cc(-c2nnc(O)n2-c2ccc3c(ccn3C)c2)c(O)cc1OP(=O)(O)O [Compound 4, sodium 5-hydroxy-4-(5-hydroxy-4-(1-methyl-1H-indol-5-yl)-4H-1,2,4-triazol-3-yl)-2-isopropylphenyl phosphate]
IC50 (Her2; phosphate): 182 nM

C=CCNC1=C2C[C@@H](C)C[C@H](OC)[C@H](O)[C@@H](C)/C=C(\C)[C@H](OC(N)=O)[C@@H](OC)/C=C\C=C(/C)C(=O)NC(=CC1=O)C2=O [Compound 17AAG, 17-allylamino-17-demethoxygeldanamycin, reference compound]
degradation of Her2 (Her2; 0.5 μM, positive control, results not shown): partial degradation

Reference: patent publication US9120745B2, “Triazole compounds that modualte HSP90 activity” (Synta Pharmaceuticals Corp., priority 2007, dated 2015)
